From PubChem BioAssay AID232 (DTP/NCI, 2004)
Where “and” joins values, the source holds several entries; their conditions need not be identical. Identical values can stand only once. Inconclusive results and toxic doses are left out.

Tested on: Gardner 6C3HED lymphosarcoma ip, C3AKF1 mice, survival T/C
Experiment: NCI In Vivo Anticancer Drug Screen. Data for tumor model Lymphosarcoma Gardner 6C3HED (intraperitoneal) in C3AKF1 (CHKRF1) mice
Conditions: endpoint: survival time, mean or median, higher = longer survival
Procedure: The antitumor activity of compounds was measured in mice bearing transplantable tumors. Survival or tumor size were measured and the results are expressed as the measurement made in the treated group (T) divided by the measurement made in the vehicle treated control group (C). The tumor model used in this assay is Lymphosarcoma Gardner 6C3HED (intraperitoneal) in C3AKF1 (CHKRF1) mice

[1] = dose: 3.0 mg/kg/injection, schedule: Q01DX010 (ip), vehicle: saline
[2] = dose: 6.0 mg/kg/injection, schedule: Q01DX010 (ip), vehicle: saline
[3] = dose: 12.0 mg/kg/injection, schedule: Q01DX010 (ip), vehicle: saline
[4] = dose: 16.0 mg/kg/injection, schedule: Q01DX010 (ip), vehicle: saline
[5] = dose: 0.5 mg/kg/injection, schedule: Q01DX010 (ip), vehicle: saline
[6] = dose: 31.3 mg/kg/injection, schedule: Q01DX010 (ip), vehicle: saline
[7] = dose: 62.5 mg/kg/injection, schedule: Q01DX010 (ip), vehicle: saline
[8] = dose: 12.5 mg/kg/injection, schedule: Q01DX010 (ip), vehicle: saline
[9] = dose: 25.0 mg/kg/injection, schedule: Q01DX010 (ip), vehicle: saline
[10] = dose: 50.0 mg/kg/injection, schedule: Q01DX010 (ip), vehicle: saline
[11] = dose: 100.0 mg/kg/injection, schedule: Q01DX010 (ip), vehicle: saline
[12] = dose: 150.0 mg/kg/injection, schedule: Q01DX010 (ip), vehicle: saline
[13] = dose: 5.0 mg/kg/injection, schedule: Q01DX010 (ip), vehicle: saline
[14] = dose: 10.0 mg/kg/injection, schedule: Q01DX010 (ip), vehicle: saline
[15] = dose: 20.0 mg/kg/injection, schedule: Q01DX010 (ip), vehicle: saline
[16] = dose: 40.0 mg/kg/injection, schedule: Q01DX010 (ip), vehicle: saline
[17] = dose: 80.0 mg/kg/injection, schedule: Q01DX010 (ip), vehicle: saline
[18] = dose: 4.0 mg/kg/injection, schedule: Q01DX010 (ip), vehicle: other
[19] = dose: 8.0 mg/kg/injection, schedule: Q01DX010 (ip), vehicle: other
[20] = dose: 6.25 mg/kg/injection, schedule: Q01DX010 (ip), vehicle: saline
[21] = dose: 8.0 mg/kg/injection, schedule: Q01DX010 (ip), vehicle: saline
[22] = dose: 2.0 mg/kg/injection, schedule: Q01DX010 (ip), vehicle: other

Nc1ncnc2[nH]ncc12
T/C (dose: 1.5 mg/kg/injection, schedule: Q01DX010 (ip), vehicle: saline): 95 % of control and 110 % of control | T/C [1]: 100 % of control and 104 % of control | T/C [2]: 95 % of control | T/C [3]: 95 % of control | T/C [4]: 90 % of control

CSCS(=O)C[C@H](CO)NC(=O)/C=C/c1c(C)[nH]c(=O)[nH]c1=O (stereo partly specified)
T/C (dose: 0.13 mg/kg/injection, schedule: Q01DX010 (ip), vehicle: saline): 87 % of control | T/C (dose: 0.25 mg/kg/injection, schedule: Q01DX010 (ip), vehicle: saline): 90 % of control | T/C [5]: 90 % of control and 91 % of control

CCOC(=O)NP(=O)(N1CC1(C)C)N1CC1(C)C (stereo unspecified)
T/C [6]: 103 % of control | T/C [7]: 111 % of control

CC/C(=C(/CC)c1ccc(O)cc1)c1ccc(O)cc1
T/C (dose: 12.5 mg/kg/injection, schedule: Q01DX010 (sc), vehicle: steriod suspending solution): 104 % of control and 105 % of control | T/C (dose: 25.0 mg/kg/injection, schedule: Q01DX010 (sc), vehicle: steriod suspending solution): 100 % of control and 105 % of control | T/C (dose: 50.0 mg/kg/injection, schedule: Q01DX010 (sc), vehicle: steriod suspending solution): 95 % of control and 100 % of control | T/C (dose: 100.0 mg/kg/injection, schedule: Q01DX010 (sc), vehicle: steriod suspending solution): 95 % of control and 100 % of control

CC(=O)Nc1ccc2nc3ccc(NC(C)=O)cc3[n+](-c3ccccc3)c2c1
T/C [8]: 111 % of control | T/C [9]: 107 % of control | T/C [10]: 103 % of control | T/C [11]: 103 % of control

CS(=O)(=O)OCCCl
T/C (dose: 18.8 mg/kg/injection, schedule: Q01DX010 (ip), vehicle: saline): 100 % of control | T/C (dose: 37.5 mg/kg/injection, schedule: Q01DX010 (ip), vehicle: saline): 100 % of control | T/C (dose: 75.0 mg/kg/injection, schedule: Q01DX010 (ip), vehicle: saline): 95 % of control | T/C [12]: 100 % of control

C[C@@H]1C[C@@H]([C@H](O)CC2CC(=O)NC(=O)C2)C(=O)[C@@H](C)C1
T/C [13]: 95 % of control and 104 % of control | T/C [14]: 90 % of control and 100 % of control | T/C [15]: 91 % of control and 118 % of control

N=C(N)c1ccc(Nc2ccc(C(=N)N)cc2)cc1
T/C [1]: 103 % of control | T/C [2]: 96 % of control | T/C [3]: 96 % of control

Cn1c(N)nc2nc[nH]c2c1=S
T/C [14]: 96 % of control | T/C [15]: 96 % of control | T/C [16]: 107 % of control | T/C [17]: 107 % of control

O=C(Nc1ccc(C2=NCCN2)cc1)c1ccc(C(=O)Nc2ccc(C3=NCCN3)cc2)cc1
T/C [18]: 179 % of control and 186 % of control | T/C [19]: 277 % of control and 300 % of control | T/C (dose: 16.0 mg/kg/injection, schedule: Q01DX010 (ip), vehicle: other): 229 % of control and 300 % of control | T/C (dose: 32.0 mg/kg/injection, schedule: Q01DX010 (ip), vehicle: other): 175 % of control and 200 % of control | T/C (dose: 64.0 mg/kg/injection, schedule: Q01DX010 (ip), vehicle: other): 166 % of control and 200 % of control

C[C@H](N)C(=O)N[C@@H]1[C@H]2C(=C(O)C[C@@H](O)[C@@H]2O)C(=O)O[C@@H]1C
T/C [12]: 110 % of control | T/C (dose: 300.0 mg/kg/injection, schedule: Q01DX010 (ip), vehicle: saline): 110 % of control and 115 % of control | T/C (dose: 600.0 mg/kg/injection, schedule: Q01DX010 (ip), vehicle: saline): 120 % of control | T/C (dose: 1200.0 mg/kg/injection, schedule: Q01DX010 (ip), vehicle: saline): 115 % of control and 120 % of control

COS(C)(=O)=O
T/C [8]: 111 % of control | T/C [10]: 300 % of control | T/C [11]: 176 % of control

CN(C)c1ccc(Nc2c3ccccc3nc3ccccc23)cc1
T/C (dose: 36.0 mg/kg/injection, schedule: Q01DX010 (ip), vehicle: saline): 107 % of control | T/C (dose: 54.0 mg/kg/injection, schedule: Q01DX010 (ip), vehicle: saline): 185 % of control | T/C [17]: 240 % of control | T/C (dose: 120.0 mg/kg/injection, schedule: Q01DX010 (ip), vehicle: saline): 214 % of control

O=c1[nH]cc(F)c(=O)[nH]1
T/C [14]: 158 % of control | T/C [15]: 295 % of control | T/C [16]: 87 % of control

CCCCNc1ncnc2c1cnn2C
T/C [6]: 100 % of control and 104 % of control | T/C [7]: 95 % of control and 100 % of control

N=[N+]=CC(=O)OCC(N)C(=O)O (stereo unspecified)
T/C [20]: 150 % of control | T/C [9]: 95 % of control

Clc1ncnc2nc[nH]c12
T/C (dose: 7.5 mg/kg/injection, schedule: Q01DX010 (ip), vehicle: saline): 87 % of control and 95 % of control | T/C (dose: 15.0 mg/kg/injection, schedule: Q01DX010 (ip), vehicle: saline): 95 % of control | T/C (dose: 30.0 mg/kg/injection, schedule: Q01DX010 (ip), vehicle: saline): 95 % of control

O=NN(CCCl)C(=O)NCCCl
T/C [20]: 300 % of control | T/C (dose: 16.25 mg/kg/injection, schedule: Q01DX010 (ip), vehicle: saline): 257 % of control

NC(Cc1ccc(N(CCCl)CCCl)cc1)C(=O)O (stereo unspecified)
T/C [21]: 160 % of control | T/C [14]: 103 % of control | T/C [4]: 100 % of control and 105 % of control

CS(=O)(=O)OCCCCOS(C)(=O)=O
T/C (dose: 1.56 mg/kg/injection, schedule: Q01DX010 (ip), vehicle: saline): 100 % of control | T/C (dose: 3.13 mg/kg/injection, schedule: Q01DX010 (ip), vehicle: saline): 100 % of control and 104 % of control

NC(Cc1c[nH]c2ccc(N(CCCl)CCCl)cc12)C(=O)O (stereo unspecified)
T/C [5]: 159 % of control | T/C (dose: 1.0 mg/kg/injection, schedule: Q01DX010 (ip), vehicle: saline): 159 % of control and 181 % of control | T/C (dose: 2.0 mg/kg/injection, schedule: Q01DX010 (ip), vehicle: saline): 195 % of control and 231 % of control

CN(C)c1ccc(/C=C/c2ccnc3ccccc23)cc1
T/C [13]: 96 % of control | T/C [14]: 92 % of control | T/C [15]: 92 % of control

O=C(Nc1ccc(C2=NCCCN2)cc1)c1ccc(C(=O)Nc2ccc(C3=NCCCN3)cc2)cc1
T/C (dose: 1.0 mg/kg/injection, schedule: Q01DX010 (ip), vehicle: other): 227 % of control and 241 % of control | T/C [22]: 300 % of control | T/C [18]: 86 % of control

O=C(Nc1ccc(C2=NCCCN2)cc1)c1ccc(NC(=O)c2ccc(C3=NCCCN3)cc2)cc1
T/C [22]: 183 % of control and 250 % of control | T/C [18]: 220 % of control and 300 % of control | T/C [19]: 177 % of control and 187 % of control

O=C(Nc1ccc(C2=NCCN2)cc1)c1cccc(C(=O)Nc2ccc(C3=NCCN3)cc2)c1
T/C [21]: 183 % of control and 200 % of control | T/C [4]: 272 % of control and 300 % of control | T/C (dose: 32.0 mg/kg/injection, schedule: Q01DX010 (ip), vehicle: saline): 279 % of control and 300 % of control | T/C (dose: 64.0 mg/kg/injection, schedule: Q01DX010 (ip), vehicle: saline): 279 % of control and 290 % of control

Nc1nc2n[nH]nc2c(=O)[nH]1
T/C (dose: 25.0 mg/kg/injection, schedule: Q01DX010 (ip), vehicle: alkali diluted with saline): 115 % of control | T/C (dose: 50.0 mg/kg/injection, schedule: Q01DX010 (ip), vehicle: alkali diluted with saline): 100 % of control and 120 % of control

Nc1nc(=S)c2[nH]cnc2[nH]1
T/C (dose: 1.25 mg/kg/injection, schedule: Q01DX010 (ip), vehicle: other): 95 % of control and 100 % of control | T/C (dose: 1.25 mg/kg/injection, schedule: Q01DX010 (ip), vehicle: saline): 120 % of control | T/C (dose: 2.5 mg/kg/injection, schedule: Q01DX010 (ip), vehicle: other): 104 % of control | T/C (dose: 2.5 mg/kg/injection, schedule: Q01DX010 (ip), vehicle: saline): 100 % of control and 110 % of control | T/C (dose: 5.0 mg/kg/injection, schedule: Q01DX010 (ip), vehicle: other): 113 % of control | T/C [13]: 100 % of control and 105 % of control | T/C (dose: 10.0 mg/kg/injection, schedule: Q01DX010 (ip), vehicle: other): 95 % of control | T/C [14]: 100 % of control and 120 % of control
